Where “and” joins values, the source holds several entries; their conditions need not be identical. Equal values may be shown once. Entries after “also recorded” stand apart in the source; their conditions may differ.
Legend:
[1] = system: B35 rat neuroblastoma cells; assay: Lactate dehydrogenase (LDH) assay, cell toxicity; type: cell-based; settings: 5 hours, concentration given in the value
Method: (§1) Rat neuroblastoma B35 cells were grown in Dulbecco's Modified Eagle's Medium (DMEM) with 10% Fetal Bovine Serum (FBS) and 1% penicillin/streptomycin and incubated at 37° C. with 5% CO2. For the experiments, cells were transferred to 12-well plates (Cat. #150628, ThermoFisher, Waltham, Mass.) and grown to at least 70% confluence. Transient transfection was performed with 3pg P301L tau (Cat. #30145, Addgene) cDNA or 3pg human a-synuclein cDNA using Fugene HD transfection reagent (Cat. #E2311, Promega, Madison Wis.) for 24 hours. Cells were treated with ImM, I00pM, 10pM, IpM, 0.lIM, 0.01pMl, and 0.001pM dissolved in DMSO or an equivalent SuL of DMSO for 5 hours. Cell culture media was collected and cells were harvested using sodium-tris, EDTA, NP-40 (STEN) buffer and centrifuged at 10,000×g for 20 minutes at 4′C and supernatant was collected. Cell viability was determined via lactate dehydrogenase assay (Cat. #88954, Thermofisher) and MTT assay (Cat. #V13154, Thennofisher). Protein was extracted by removing culture medium and adding 0.2 ml lx STEN buffer (50 mM Tris (pH 7.6), 150 mM NaCl, 2 mM EDTA, 0.2% NP-40, 0.2% BSA, 20 mM PMSF and protease cocktail inhibitor) to cell layer and incubated on ice for 10 minutes. The bottom of the well was scraped and allowed to incubate on ice for an additional 10 minutes. Cell lysates were collected, stored at -80° C., and used for additional analyses.
(§2) Compound 1 (BK5018), Compound 2 (BK5026), Compound 3 (BK5029), Compound 4 (BD5040), Compound 6 (CL2-296). Compound 7 (CL-2-287-1) and Compound 8 (CL-2-287-2) with molecular weights of 284, 339.265, 264, 339, 269 and 247 gimol, respectively, were diluted in Dimethyl Sulfoxide (DMSO) to final concentrations of 100 pM, 10 µM, 1 pM, 0.1 pM, 0.01 pM, and 0.001 pM. Drugs were stored at −80° C.
Cellular cytotoxicity was quantitatively measured by assessment of LDH, a cytosolic enzyme that is released from damaged cells into the cellular media, after exposure to the drug 5 hours after initial dosage. The cell culture media was collected, and an aliquot was coupled with a lactate and NAD+. LDH catalyzes the reaction that converts lactate into pyruvate to produce NADH. NADH, in turn, reduces a tetrazolium salt (NT) into a red fornazan product. The amount of LDH in the media is proportional to the amount of formazan which was measured at 490 nn. The absorbance at 680 nm, to measure the background signal from the instrument, was subtracted from the absorbance at 490 nm to calculate the LDH activity. CelfCulture

[2] = system: B35 rat neuroblastoma cells; assay: MTT assay, cell viability; type: cell-based; settings: 5 hours, concentration given in the value
Method: as §1, §2
To measure cell viability, cells were incubated with 500 pL of Dulbecco's Modified Eagle's Medium (DMEf) containing 50 pL of (3-[4,5-dimethylthiazol-2-yl]-2,5-diphenyl-tetrazolium bromide (ivT)) for 5 hours at 37° C. and 5% CO2. The media was aspirated so that 125 uL of media remained. The formazan salts were dissolved in 250 uL of DMSO. Absorbance was read against a blank containing 125 uL of media and MTT, and 250 uL of DMSO at 570 mn.

murine Tau = assay: Tau ELISA of whole brain lysates from A53T mice; type: in vivo, mouse (A53T); settings: 21 days, 12 month old A53T mice
[3] = system: alpha-synuclein in a-synuclein-transfected B35 rat neuroblastoma cells; assay: Reduction of alpha-synuclein in a-synuclein-transfected B35 cells; type: cell-based, rat cells transfected with human a-synuclein cDNA; settings: treatment for five hours with 100aM, lOuM and luM concentrations
Method: as §1
To perform transient transfection of a-synuclein into the rat neuroblastoma B35 cells FuGene@ HD Transfection Reagent (Promega Corporation, Madison, Wis.) was used. Cells were grown in 12-well dishes. A mixture containing 12 pg of cDNA, 540 pg of DMEM containing 2% FBS, and 60 pd of FuGene@ HD Transfection Reagent was incubated for 10 minutes. The cells were treated with 50 pl of the FuGeneC HD Transfection Reagent/DNA mixture for 24 hours. Cells were harvested after transfection, media was aspirated, the cells were treated with 200ul of Sodium Tris EDTA NP40 (STEN) lysis buffer then scraped off the plate and collected into a 1.5 ml centrifiuge tube.

[4] = system: Tauopathy rTG4510 mice expressing human P301L tau; assay: Overnight nest shredding (nesting) behavior; type: in vivo, mouse; settings: 10 mg/kg, 3 weeks, vs DMSO (Kruskal-Wallis P=0.01), rTG4510 mice
Method: Tauopathy rTG4510 mice (i.e., a mouse model that clinically manifest a tauopathy), expressing human P301L tau driven by a CAMrII promoter, approximately 9-12 months old, were treated intraperitoneally (I.P.) for 21 consecutive days, […], or Dimethyl sulfoxide (DMSO) (n=7).
Then, blinded, independent observers reviewed images of the overnight shredding and the average quality scores were calculated.
For nest shredding, Mann-Whitney analysis was used within groups, between timepoints, and Kruskal-Wallis analysis was used between treatment groups. For open-field studies, : ordinary one-way ANOVA or Student's I test was used. […]
Blinded independent observers reviewed images of the overnight shredding and the average quality scores were calculated.

[5] = 2.5 mg/kg, 5 mg/kg and 10 mg/kg I.P.

SMILES	cell toxicity, as measured by LDH assay [1]	cell toxicity, as measured by MTT assay [2]	murine Tau in whole brain lysates (murine Tau; 2.5 mg/kg and 10 mg/kg I.P.)	level of alpha-synuclein [3]	murine Tau in whole brain lysates (murine Tau; [5])	nesting mean difference scores ([4]; listed as CL287-1)	nesting mean difference scores ([4]; listed as CL-287-1)
COc1cccc(Nc2ccnc3cc(Cl)ccc23)c1 [BK5018, 7-Chloro-N-(3-methoxyphenyl)quinoin-4-amine]	100aM and luM of BK5018 displayed increased levels of LDH and 100 uM and luM of BK5018 displayed increased toxicity	no concentration of BK5018 displayed increased toxicity	significant reduction				
Cc1cccc(Nc2cc(Nc3cccc(C)c3)c3ccccc3n2)c1 [BK5026, N^2,N^4-Di-m-tolyquinoline-2,4-diamine]	lOOuM and 1OuM concentrations of BK5026 displayed increased levels of cell toxicity and 100 uM	OOuM concentrations ofBK5026 displayed increased levels of cell toxicity					
COc1ccc2nccc(Oc3ccc(C)cc3)c2c1 [BK5029, 6-Methoxy-4-(p-tolyloxy)quinoUne]	low doses of BK5029 displayed increased toxicity	low doses of BK5029 displayed increased toxicity		none of the compounds significantly reduced the level of alpha-synuclein; also recorded: do not significantly reduce	significant reduction		
COc1ccc2nccc(Nc3cccc(C)c3)c2c1 [BK5030, 6-Methoxy-N-(m-toIyl)quinolin-4-amine]	no concentration of BK5030 displayed increased toxicity	no concentration of BK5030 displayed increased toxicity		none of the compounds significantly reduced the level of alpha-synuclein; also recorded: do not significantly reduce			
Cc1cccc(Nc2ccc3c(Nc4cccc(C)c4)nccc3c2)c1 [CL2-296, N^4,N^6—Di-m-tolylisoquinoline-1,6-diamine]	100 uM and IOuM concentrations of CL2-296 displayed decreased levels of LDH and no other concentration of CL2-296 displayed increased cell toxicity and 100luM and 10 uM concentrations of CL2-296 displayed decreased levels of LDH	no concentration of CL2-296 displayed increased cell toxicity		none of the compounds significantly reduced the level of alpha-synuclein; also recorded: do not significantly reduce	significant reduction		
CC(C)(C)c1ccccc1Nc1ccccc1C(=O)O [CL-2-287-1, 2-((2-(tert-Buty)phenyl)amino)benzoic adid]	at 100 uM or less did not show increased cell toxicity	at 100lM or less did not show increased cell toxicity				significantly different	significantly improved nesting behavior

— patent publication US20230095341A1, “COMPOSITIONS AND METHODS FOR TREATING NEURODEGENERATIVE, MYODEGENERATIVE, AND LYSOSOMAL STORAGE DISORDERS” (GEORGETOWN UNIVERSITY, priority 2020, published 2023)
